In test [1] the target is SULT2B1b (Homo sapiens (Human), UniProt O00204). In words: LC-MS/MS based in vitro assay (DHEA-sulfate formation). Format: biochemical. As to conditions: 100 μM compound, 2 hours; mean±s.e.m., n=3. As to the method:
LC-MS/MS Based In Vitro Assay. Stock solutions of DHEA (5 mM in DMSO) and compound of interest (5 mM in DMSO) were prepared. […] SULT2B1b was diluted to 1.5 μg/μL in protein storage buffer then down to 0.8 μg/μL in 1× activity assay buffer. 30 μL of 0.8 μg/μL SULT2B1b was added to each reaction. Reactions were incubated for 2 hours at 37° C. with shaking at 250 rpm. To quench, 30 μL reaction mix was added to 30 μL ice cold 0.5% HCl in MeCN, then centrifuged at 13,000 xg at room temperature for 3 min. 50 μL supernatant was transferred to an empty Eppendorf tube and submitted for LC-MS/MS quantification (UIUC Metabolomics Center), along with 5 mM DHEA sulfate standard. Controls: Reaction mix made with DHEA and DMSO in place of compound of interest (DHEA control). […] General LC-MS/MS Quantification Method. Both DHEAS and CS samples were analyzed by 6500 QTRAP (Sciex, Redwood City, CA) liquid chromatography-tandem mass spectrometry. […] The flow rate was 0.3 mL/min. […] The source temperature was 400° C. […] Cholesterol-sulfate and DHEA-sulfate were detected by multiple reaction monitoring (MRM) at m/z 465→97.0 and 367.0→97.0 respectively. Software Analyst 1.7.1 ([…]) was used for data acquisition and analysis.

Test [2] deals with whole cell CS levels in MCF-7. The experiment in a line: Whole cell cholesterol sulfate quantification, MCF-7. Conditions: 72 hours. In kind it is cell-based, human. As to the method:
(§1) General Whole Cell Cholesterol Sulfate Quantification. 60×15 mm tissue culture dishes were seeded with MCF-7 at 2×10^6 cells/dish or T47D at 1×10^6 cells per dish, 5 mL total media volume, and allowed to adhere overnight. Compounds of interest were dissolved in DMSO. Cells were treated with 25 μL 1.25 mM compound of interest stock (6.25 μM final compound concentration, 0.5% final DMSO concentration) or DMSO for 72 hours. To harvest, media was aspirated, and cells were washed once with PBS before detaching with trypsin. Trypsin was quenched with media. Cells were centrifuged at 300 xg for 3 minutes and supernatant was discarded. Cells were resuspended in media and counted using a Countess 3 automated cell counter (Thermo Fisher Scientific). 1.5×10^6 cells were collected, washed twice with 1 mL PBS, then pelleted and stored at −80° C. until lysis. Cell pellets were resuspended in 200 μL cold 70:30 methanol:water and placed on ice. Cell suspension was sonicated on ice (30%, 10 s on, 20 s off, 1 min total) and continued to be incubated on ice for 30 minutes. Lysate was clarified by centrifugation at 14,100 xg at 4° C. for 30 minutes. 100 μL of supernatant was transferred to an empty Eppendorf tube and submitted for LC-MS/MS quantification (UIUC Metabolomics Center), along with 5 mM cholesterol sulfate sodium salt standard.
as §1, with “Time Course Whole Cell” for “General Whole Cell”, “2×10^6 cells/dish per dish,” for “2×10^6 cells/dish or T47D at 1×10^6 cells per dish,”, “DMSO for 0 (harvested immediately), 4, 8, 24, 48, or 72 hours.” for “DMSO for 72 hours.”
Whole Cell Cholesterol Sulfate Quantification with Compound Removal. 60×15 mm tissue culture dishes were seeded with MCF-7 at 2×10^6 cells/dish, 5 mL total media volume, and allowed to adhere overnight. Compounds of interest were dissolved in DMSO. Cells were treated with 25 μL 1.25 mM compound of interest stock (6.25 μM final compound concentration, 0.5% final DMSO concentration) for 0 hours (harvested immediately) or 24 hours. Media was aspirated and replaced with 5 mL fresh media, then cells were either harvested (24 hour time point) or further incubated. To harvest, media was aspirated, and cells were washed once with PBS before detaching with trypsin. Trypsin was quenched with media. Cells were centrifuged at 300 xg for 3 minutes and supernatant was discarded. Cells were resuspended in media and counted using a Countess 3 automated cell counter (Thermo Fisher Scientific). 1.5×10^6 cells were collected, washed twice with 1 mL PBS, then pelleted and stored at −80° C. until lysis. Cell pellets were resuspended in 200 μL cold 70:30 methanol:water and placed on ice. Cell suspension was sonicated on ice (30%, 10 s on, 20 s off, 1 min total) and continued to be incubated on ice for 30 minutes. Lysate was clarified by centrifugation at 14,100 xg at 4° C. for 30 minutes. […]

For test [3], the system named is free cholesterol levels in MCF-7. The experiment in a line: Whole cell cholesterol assay. In kind it is cell-based, human. As to conditions: MCF-7, 6.25 μM, 72 hours. As to the method:
Whole Cell Cholesterol Assay. Assay was run according to manufacturer's instructions. Briefly, 5000 MCF-7 cells were plated in 99 μL media in a 96-well plate and allowed to adhere overnight before DMSO solutions of compounds were added to each well. Final concentration of DMSO in each well is 1%, final volume: 100 μL. At the end of 72 hours, media was aspirated, and cells were washed twice with 100 μL PBS. 50 μL of cholesterol lysis solution was added and cells were incubated for 30 minutes at 37° C. 50 μL of sample was then transferred to a 96-well white walled assay plate. 50 μL of cholesterol detection reagent was added to all wells and incubated at room temperature for 1 hour. Luminescence was read using a SpectraMax M3 plate reader (Molecular Devices). Cholesterol levels were determined by use of a cholesterol standard curve.

Each structure is given as a SMILES string.

SULT2B1b, sequence (O00204 whole entry): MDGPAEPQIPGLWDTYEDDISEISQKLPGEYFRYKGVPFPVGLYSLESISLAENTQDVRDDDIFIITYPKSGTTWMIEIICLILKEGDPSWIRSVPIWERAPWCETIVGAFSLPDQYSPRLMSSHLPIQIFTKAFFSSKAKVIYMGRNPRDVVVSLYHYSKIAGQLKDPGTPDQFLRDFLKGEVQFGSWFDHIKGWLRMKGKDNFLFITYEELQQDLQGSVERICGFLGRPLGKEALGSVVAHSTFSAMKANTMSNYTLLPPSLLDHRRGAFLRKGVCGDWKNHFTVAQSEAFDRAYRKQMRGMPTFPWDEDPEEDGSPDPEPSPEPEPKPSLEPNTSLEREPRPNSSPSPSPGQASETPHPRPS

One may read the inhibition as the drop in the measured response relative to a control, in per cent. In turn, `C[C@]12CCC(=O)N(Cc3ccccc3)C1=CC[C@@H]1[C@@H]2C(=O)C[C@]2(C)C(=O)CC[C@@H]12` [Compound 5, (4aR,4bS,6aS,9aS,9bS)-1-benzyl-4a,6a-dimethyl-3,4,4a,6,6a,8,9,9a,9b,10-decahydro-1H-indeno[5,4-f]quinoline-2,5,7(4bH)-trione] returned an inhibition at 100 µM in test [1] of 48 ± 2%. The same measure, in the same setting: to `C[C@]12CCC(=O)N(CC3CCCCC3)C1=CC[C@@H]1[C@@H]2C(=O)C[C@]2(C)C(=O)CC[C@@H]12` [Compound 14, (4aR,4bS, 6aS, 9aS, 9bS)-1-(cyclohexylmethyl)-4a, 6a-dimethyl-3,4,4a, 6,6a, 8,9,9a, 9b,10-decahydro-1H-indeno[5,4-f]quinoline-2,5,7(4bH)-trione] belongs 48 ± 2%; to `C[C@]12CCC(=O)N(Cc3ccc(Cl)cc3)C1=CC[C@@H]1[C@@H]2C(=O)C[C@@]2(C)[C@H]1CCC21OCCO1` [Compound 10, (4aR,4bS,6aS,9aS,9bS)-1-(4-chlorobenzyl)-4a,6a-dimethyl-1,3,4,4a,4b,6,6a,8,9,9a,9b,10-dodecahydrospiro[indeno[5,4-f]quinoline-7,2′-[1,3]dioxolane]-2,5-dione], 45 ± 1%. Regarding `O=CC1(C2(C=O)c3ccccc3-c3ccccc32)c2ccccc2-c2ccccc21` [Raptinal, reference compound], the “whole cell CS levels vs DMSO” value in test [2] (MCF-7, sub-lethal 0.156 μM) is given as “no significant difference”. For the compound `CN1C(=O)CC[C@@]2(C)C1=CC[C@@H]1[C@@H]2C(=O)C[C@]2(C)C(=O)CC[C@@H]12` [Compound 6, (4aR,4bS,6aS,9aS,9bS)-1,4a,6a-trimethyl-3,4,4a,6,6a,8,9,9a,9b,10-decahydro-1H-indeno[5,4-f]quinoline-2,5,7(4bH)-trione], the inhibition at 100 µM in test [1] was 8.8 ± 0.4%. Besides, the “whole cell CS levels vs DMSO” value in test [2] (MCF-7, 6.25 μM compound) was “not seen”. In test [3], the “free cholesterol levels vs DMSO” value is given as “no statistical difference”.

Take `C[C@]12CCC(=O)N(Cc3ccc(Cl)cc3)C1=CC[C@@H]1[C@@H]2CC[C@]2(C)C(=O)CC[C@@H]12` [Compound 9, (4aR,4bS,6aS,9aS,9bR)-1-(4-chlorobenzyl)-4a,6a-dimethyl-3,4,4a,4b,5,6,6a,8,9,9a,9b,10-dodecahydro-1H-indeno[5,4-f]quinoline-2,7-dione]: 100 µM produced 53 ± 1% inhibition in test [1]. Take `C[C@]12CCC(=O)N(Cc3cccc(Cl)c3)C1=CCC1[C@@H]2C(=O)C[C@]2(C)C(=O)CC[C@@H]12` (stereo partly drawn) [Compound 7, (4aR,4bS,6aS,9aS,9bS)-1-(3-chlorobenzyl)-4a,6a-imethy-3,4,4a,6,6a,8,9,9a,9b,10-decahydro-1H-indeno[5,4-f]quinoline-2,5,7(4bH)-trione]: in test [1], 100 µM produced 69.8 ± 0.5% inhibition. For `C[C@]12CCC(=O)N(Cc3ccc(Br)nc3)C1=CC[C@@H]1[C@@H]2C(=O)C[C@]2(C)C(=O)CC[C@@H]12` [Compound 11, (4aR,4bS,6aS,9aS,9bS)-1-((6-bromopyridin-3-yl)methyl)-4a,6a-dimethyl-3,4,4a,6,6a,8,9,9a,9b,10-decahydro-1H-indeno[5,4-f]quinoline-2,5,7(4bH)-trione], the inhibition at 100 µM in test [1] was 53 ± 1%.

With `C[C@]12CCC(=O)N(Cc3ccc4ccccc4c3)C1=CC[C@@H]1[C@@H]2C(=O)C[C@]2(C)C(=O)CC[C@@H]12` [Compound 12, (4aR,4bS,6aS,9aS,9bS)-4a,6a-dimethyl-1-(naphthalen-2-ylmethyl)-3,4,4a,6,6a,8,9,9a,9b,10-decahydro-1H-indeno[5,4-f]quinoline-2,5,7(4bH)-trione], the inhibition at 100 µM in test [1] was 52 ± 10%. The compound `C[C@]12CCC(=O)N(Cc3ccc(F)cc3)C1=CC[C@@H]1[C@@H]2C(=O)C[C@]2(C)C(=O)CC[C@@H]12` [Compound 4, (4aR,4bS,6aS,9aS,9bS)-1-(4-fluorobenzyl)-4a,6a-dimethyl-3,4,4a,6,6a,8,9,9a,9b,10-decahydro-1H-indeno[5,4-f]quinoline-2,5,7(4bH)-trione] showed an inhibition at 100 µM in test [1] of 55 ± 2%. Compound `C[C@]12CCC(=O)N(CC3CC3)C1=CC[C@@H]1[C@@H]2C(=O)C[C@]2(C)C(=O)CC[C@@H]12` [Compound 13, (4aR,4bS,6aS,9aS,9bS)-1-(cyclopropylmethyl)-4a,6a-dimethyl-3,4,4a, 6,6a, 8,9,9a, 9b,10-decahydro-1H-indeno[5,4-f]quinoline-2,5,7(4bH)-trione] gave an inhibition at 100 µM in test [1] of 27 ± 2%.

Compound `C[C@]12CCC(=O)N(Cc3ccccc3Cl)C1=CC[C@@H]1[C@@H]2C(=O)C[C@]2(C)C(=O)CC[C@@H]12` [Compound 8, (4aR,4bS,6aS,9aS,9bS)-1-(2-chlorobenzyl)-4a,6a-dimethyl-3,4,4a,6,6a,8,9,9a,9b,10-decahydro-1H-indeno[5,4-f]quinoline-2,5,7(4bH)-trione] registered an inhibition at 100 µM in test [1] of 46 ± 1%.

Values taken from patent US20240400606A1, “SMALL MOLECULE ACTIVATORS OF THE IMMUNE SYSTEM” (THE BOARD OF TRUSTEES OF THE UNIVERSITY OF ILLINOIS, priority 2021, published 2024).
